Laboratory results reported in patent US8415469B2, “Compounds and methods for kinase modulation, and indications therefor” (Plexxikon Inc., priority 2005, dated 2013).

Assays:
Assay type in all cases: biochemical
Jnk3 = target: T1, Jnk3 (Homo sapiens, UniProt P53779); assay: AlphaScreen kinase assay, Jnk3; conditions: read-out: IC50, activity toward kinase Jnk3
T1 construct: purchased Upstate Biotechnology

Kdr = target: T2, Kdr (Homo sapiens, UniProt P35968); assay: Z'-Lyte FRET kinase assay (Invitrogen), Kdr; conditions: read-out: IC50, activity toward kinase Kdr
T2 construct: purchased Invitrogen (assay run by Invitrogen)

Plk1 = Plk1 (Homo sapiens, UniProt P53350); assay: AlphaScreen kinase assay, Plk1; conditions: read-out: IC50, activity toward kinase Plk1
Summary of the method: (§1)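 Biotinylated peptide substrate is phosphorylated by kinase; anti-phosphopeptide antibody on acceptor beads and streptavidin donor beads bring emission when substrate is phosphorylated. Inhibition lowers acceptor signal. Compounds from 20 mM DMSO stock tested as 8-point 1:3 serial dilutions.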

IGF1R = IGF1R (Homo sapiens, UniProt P08069); assay: AlphaScreen kinase assay, IGF1R; conditions: read-out: IC50, activity toward kinase IGF1R
Experimental: (§3) AlphaScreen assays were done using compounds dissolved in DMSO to a concentration of 20 mM. The compounds were diluted accordingly to the desired final concentrations in each sample well, using 1:3 serial dilution for a total of 8 concentration points. Plates were prepared such that each kinase reaction is 20 μl in 1× kinase buffer, 5% DMSO and 10 μM ATP. After incubation of the kinase reaction for 1 hour at room temperature, 5 μl of donor beads in stop buffer (50 mM EDTA in 1× kinase buffer) was added, the sample was mixed and incubated for 20 minutes at room temperature before adding 5 μl of acceptor beads in stop buffer. The samples were incubated for 60 minutes at room temperature and the signal per well was read on AlphaQuest reader.

Itk = target: T3, Itk (Homo sapiens, UniProt Q08881); assay: AlphaScreen kinase assay, Itk; conditions: read-out: IC50, activity toward kinase Itk
T3 sequence (Q08881 1-620): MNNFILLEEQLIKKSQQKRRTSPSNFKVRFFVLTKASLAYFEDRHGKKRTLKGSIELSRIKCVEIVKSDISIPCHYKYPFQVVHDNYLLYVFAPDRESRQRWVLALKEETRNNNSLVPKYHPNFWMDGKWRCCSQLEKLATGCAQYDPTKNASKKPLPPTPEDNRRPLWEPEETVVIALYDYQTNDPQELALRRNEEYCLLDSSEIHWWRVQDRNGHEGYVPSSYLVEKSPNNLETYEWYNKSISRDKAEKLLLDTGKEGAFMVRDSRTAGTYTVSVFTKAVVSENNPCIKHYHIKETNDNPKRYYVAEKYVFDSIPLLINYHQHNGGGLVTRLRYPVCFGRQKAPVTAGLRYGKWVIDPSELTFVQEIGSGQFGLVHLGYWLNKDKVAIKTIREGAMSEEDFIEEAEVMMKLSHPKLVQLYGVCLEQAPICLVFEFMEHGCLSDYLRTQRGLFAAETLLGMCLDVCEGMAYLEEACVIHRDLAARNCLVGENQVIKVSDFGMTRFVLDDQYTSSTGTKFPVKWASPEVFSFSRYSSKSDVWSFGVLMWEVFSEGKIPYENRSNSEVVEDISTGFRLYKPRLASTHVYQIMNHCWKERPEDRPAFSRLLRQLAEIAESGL
Summary of the method: as §1

Stk6 = target: T4, Stk6 (Homo sapiens, UniProt O14965); assay: Z'-Lyte FRET kinase assay (Invitrogen), Stk6; conditions: read-out: IC50, activity toward kinase Stk6
T4 construct: purchased Invitrogen (Carlsbad, Calif.), screening service
T4 sequence (O14965 1-403): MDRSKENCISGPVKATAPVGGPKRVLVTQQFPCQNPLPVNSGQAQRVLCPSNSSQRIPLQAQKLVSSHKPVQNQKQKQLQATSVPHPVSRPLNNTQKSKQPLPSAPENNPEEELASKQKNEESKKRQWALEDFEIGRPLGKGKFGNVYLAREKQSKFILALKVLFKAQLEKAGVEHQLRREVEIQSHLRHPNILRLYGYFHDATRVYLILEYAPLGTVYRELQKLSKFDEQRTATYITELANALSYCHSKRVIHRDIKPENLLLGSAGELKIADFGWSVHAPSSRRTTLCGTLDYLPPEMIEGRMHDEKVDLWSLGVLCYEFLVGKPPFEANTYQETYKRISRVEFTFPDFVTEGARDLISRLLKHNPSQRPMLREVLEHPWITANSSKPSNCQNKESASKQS

MAP2K1 = target: T5, MAP2K1 (Homo sapiens, UniProt Q02750); assay: Z'-Lyte FRET kinase assay (Invitrogen), MAP2K1; conditions: read-out: IC50, activity toward kinase MAP2K1
T5 construct: purchased Invitrogen (assay run by Invitrogen)

PKC theta = target: T6, PKC theta (Homo sapiens, UniProt Q04759); assay: Z'-Lyte FRET kinase assay (Invitrogen), PKC theta; conditions: read-out: IC50, activity toward kinase PKC theta
T6 construct: purchased Invitrogen (Carlsbad, Calif.), screening service
Summary of the method: (§2)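 Read-out is the coumarin-to-fluorescein emission ratio, which rises when unphosphorylated peptide is cleaved by the development protease. Reactions contain serially diluted compound, 2 μM peptide and 10 μM ATP and run for 1 h at room temperature before 1 h development.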

Btk = target: T7, Btk (Homo sapiens, UniProt Q06187); assay: Z'-Lyte FRET kinase assay (Invitrogen), Btk; conditions: read-out: IC50, activity toward kinase Btk
T7 construct: purchased Invitrogen (assay run by Invitrogen)

Kit = target: T8, Kit (Homo sapiens, UniProt P10721); assay: AlphaScreen kinase assay, Kit; conditions: read-out: IC50, activity toward kinase Kit
T8 construct: P1332.N6 BI PTP KIT M552-K948-X COD; His6 (N); made in house; host or cells: E. coli (PTP1B co-expressed)

Yes = target: T9, Yes (Homo sapiens, UniProt P07947); assay: Z'-Lyte FRET kinase assay (Invitrogen), Yes; conditions: read-out: IC50, activity toward kinase Yes
T9 construct: purchased Invitrogen (Carlsbad, Calif.), screening service
Summary of the method: as §2

Erk2 = target: T10, Erk2 (Homo sapiens, UniProt P28482); assay: AlphaScreen kinase assay, Erk2; conditions: read-out: IC50, activity toward kinase Erk2
T10 construct: P4227.pET15S ERK2/MEK1DD; His6 with thrombin site (N); made in house
Source text: AlphaScreen assay was used to screen additional kinases. The assay is similarly dependent on the phosphorylation of a peptide substrate. In this assay, an antibody that recognizes phosphorylated substrate is bound to an acceptor bead. The peptide substrate is attached to biotin, which binds to a donor head that contains streptavidin. Thus phosphorylated substrate is bound by antibody and streptavidin, bringing the donor and acceptor heads into close proximity when kinase is not inhibited. The donor produces singlet oxygen which results in emission from the acceptor when they are in close proximity. Conversely, when kinase is inhibited, the donor and acceptor beads are not associated and the emission from the acceptor is reduced.
AlphaScreen assays were done using compounds dissolved in DMSO to a concentration of 20 mM. The compounds were diluted accordingly to the desired final concentrations in each sample well, using 1:3 serial dilution for a total of 8 concentration points.

Irak4 = target: T11, Irak4 (Homo sapiens, UniProt Q9NWZ3); assay: Z'-Lyte FRET kinase assay (Invitrogen), Irak4; conditions: read-out: IC50, activity toward kinase Irak4
T11 construct: purchased Invitrogen (assay run by Invitrogen)
T11 sequence (Q9NWZ3 1-460): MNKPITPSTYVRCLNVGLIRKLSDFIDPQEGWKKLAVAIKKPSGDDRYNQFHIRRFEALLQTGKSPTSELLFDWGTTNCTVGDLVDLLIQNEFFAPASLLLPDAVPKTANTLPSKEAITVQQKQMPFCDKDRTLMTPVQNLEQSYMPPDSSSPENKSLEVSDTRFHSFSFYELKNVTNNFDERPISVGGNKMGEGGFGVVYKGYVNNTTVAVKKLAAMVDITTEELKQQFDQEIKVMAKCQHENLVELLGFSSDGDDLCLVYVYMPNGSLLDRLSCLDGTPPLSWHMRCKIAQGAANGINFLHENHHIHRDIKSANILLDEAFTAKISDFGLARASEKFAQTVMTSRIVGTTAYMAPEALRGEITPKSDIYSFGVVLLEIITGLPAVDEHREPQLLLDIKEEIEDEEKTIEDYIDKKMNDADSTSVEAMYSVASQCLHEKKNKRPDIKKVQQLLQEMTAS
Source text: The effect of potential modulators of kinase activity can be measured in a variety of different assays known in the art. For example, direct radiometric, indirect FRET or AlphaScreen assays may be used to assess the level of phosphorylation of a substrate in the presence of test compounds in order to determine the inhibitory affect of the compound on the kinase. Invitrogen (Carlsbad, Calif.) uses a FRET based assay for Btk, EGFR, EphB2, Flt3, lrak4, Kdr, MAP2K1, MAPKAPK2, PDGFRB, PKC theta, Stk6 and Yes. For these assays, compounds of the invention were screened by Invitrogen using Z′-Lyte™ kinase assay.
Briefly, the Invitrogen kinase assay involves use of a specific peptide substrate optimized for each kinase, containing a fluorophore at each end that make up the FRET pair. The peptide sensitivity to proteolytic cleavage depends on phosphorylation of the peptide. Non-phosphorylated peptide is cleaved by a protease while peptide phosphorylated by the kinase is not cleaved. Cleavage of the peptide disrupts the FRET between the donor (coumarin) and acceptor (fluorescein) fluorophores, resulting in an increase in the ratio of donor emission to acceptor emission. The emission ratio of coumarin to fluorescein is used to assess the reaction progress. The extent of phosphorylation is determined from the emission ratio, which is low when the kinase is active (phosphorylated peptide is not cleaved, FRET pair connected) or higher for inhibited kinase (non-phosphorylated peptide is cleaved, FRET pair separated). Thus, the assay involves a kinase reaction in the presence of varying concentrations of a given compound, a development reaction with site specific protease, and detection of the fluorescent emission ratio of coumarin and fluorscein. […] Reaction conditions for each kinase are determined to provide optimal reaction times, incubation temperature, kinase and ATP concentrations. Test samples are made up in 1× kinase buffer (50 mM HEPES pH 7.5, 50 mM MgCl2, 5 mM EGTA, 0.05% BRIJ-35) and compound at desired concentration prepared in DMSO such that the final DMSO is 1%. […] Typically, assay plates are prepared to 10 μl final volume per sample, adding 2.5 μl of compound at 4× the desired concentration in 4% DMSO (serial dilution of compound provides concentration curve), 5 μl of the desired kinase mixed with Z′-LYTE™ peptide substrate (2× in 2× kinase buffer, final peptide at 2 μM), and 2.5 μl of 4×ATP solution. All kinase except for MAP2K1 were at 10 μM ATP in the kinase reaction, while MAP2K1 was at 100 μM. Samples are mixed and the kinase reaction is incubated 1 hour at room temperature, after which 5 μl of development solution is added and mixed. After incubation for another 1 hour at room temperature, 5 μl of stop reagent is added to each sample and mixed. The fluorescence signals are measured to determine the emission ratio.

Flt1 = target: T12, Flt1 (Homo sapiens, UniProt P17948); assay: AlphaScreen kinase assay, Flt1; conditions: read-out: IC50, activity toward kinase Flt1
T12 construct: P1826.pETN6 BI-PTP FLT1 M799-D1165-X WT; His6 (N); made in house; host or cells: E. coli (PTP1B co-expressed)
T12 sequence (P17948 with tags, fused parts or gaps): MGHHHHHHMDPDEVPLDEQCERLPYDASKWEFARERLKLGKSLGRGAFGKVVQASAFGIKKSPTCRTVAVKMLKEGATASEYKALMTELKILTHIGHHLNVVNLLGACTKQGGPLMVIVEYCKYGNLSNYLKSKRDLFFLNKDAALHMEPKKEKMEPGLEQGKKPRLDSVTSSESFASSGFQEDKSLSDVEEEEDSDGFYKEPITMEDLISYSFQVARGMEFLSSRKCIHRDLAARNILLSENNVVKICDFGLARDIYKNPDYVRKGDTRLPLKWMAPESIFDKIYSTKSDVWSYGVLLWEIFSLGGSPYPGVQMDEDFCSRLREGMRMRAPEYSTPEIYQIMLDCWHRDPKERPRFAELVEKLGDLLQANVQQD

Met = target: T13, Met (Homo sapiens, UniProt P08581); assay: AlphaScreen kinase assay, Met; conditions: read-out: IC50, activity toward kinase Met
T13 construct: P1818.pETN6 BI-PTP MET G1056-G1364-X WT; His6 (N); made in house; host or cells: E. coli (PTP1B co-expressed)
Summary of the method: as §1

Akt3 = Akt3 (Homo sapiens, UniProt Q9Y243); assay: AlphaScreen kinase assay, Akt3; conditions: read-out: IC50, activity toward kinase Akt3
Summary of the method: as §1

Gsk3β = Gsk3β (Homo sapiens, UniProt P49841); assay: AlphaScreen kinase assay, Gsk3β; conditions: read-out: IC50, activity toward kinase Gsk3β
Summary of the method: as §1

MAP4K4 = MAP4K4 (Homo sapiens, UniProt O95819); assay: AlphaScreen kinase assay, MAP4K4; conditions: read-out: IC50, activity toward kinase MAP4K4
Experimental: as §3

Measured: IC50

T2 sequence (P35968 20-1356): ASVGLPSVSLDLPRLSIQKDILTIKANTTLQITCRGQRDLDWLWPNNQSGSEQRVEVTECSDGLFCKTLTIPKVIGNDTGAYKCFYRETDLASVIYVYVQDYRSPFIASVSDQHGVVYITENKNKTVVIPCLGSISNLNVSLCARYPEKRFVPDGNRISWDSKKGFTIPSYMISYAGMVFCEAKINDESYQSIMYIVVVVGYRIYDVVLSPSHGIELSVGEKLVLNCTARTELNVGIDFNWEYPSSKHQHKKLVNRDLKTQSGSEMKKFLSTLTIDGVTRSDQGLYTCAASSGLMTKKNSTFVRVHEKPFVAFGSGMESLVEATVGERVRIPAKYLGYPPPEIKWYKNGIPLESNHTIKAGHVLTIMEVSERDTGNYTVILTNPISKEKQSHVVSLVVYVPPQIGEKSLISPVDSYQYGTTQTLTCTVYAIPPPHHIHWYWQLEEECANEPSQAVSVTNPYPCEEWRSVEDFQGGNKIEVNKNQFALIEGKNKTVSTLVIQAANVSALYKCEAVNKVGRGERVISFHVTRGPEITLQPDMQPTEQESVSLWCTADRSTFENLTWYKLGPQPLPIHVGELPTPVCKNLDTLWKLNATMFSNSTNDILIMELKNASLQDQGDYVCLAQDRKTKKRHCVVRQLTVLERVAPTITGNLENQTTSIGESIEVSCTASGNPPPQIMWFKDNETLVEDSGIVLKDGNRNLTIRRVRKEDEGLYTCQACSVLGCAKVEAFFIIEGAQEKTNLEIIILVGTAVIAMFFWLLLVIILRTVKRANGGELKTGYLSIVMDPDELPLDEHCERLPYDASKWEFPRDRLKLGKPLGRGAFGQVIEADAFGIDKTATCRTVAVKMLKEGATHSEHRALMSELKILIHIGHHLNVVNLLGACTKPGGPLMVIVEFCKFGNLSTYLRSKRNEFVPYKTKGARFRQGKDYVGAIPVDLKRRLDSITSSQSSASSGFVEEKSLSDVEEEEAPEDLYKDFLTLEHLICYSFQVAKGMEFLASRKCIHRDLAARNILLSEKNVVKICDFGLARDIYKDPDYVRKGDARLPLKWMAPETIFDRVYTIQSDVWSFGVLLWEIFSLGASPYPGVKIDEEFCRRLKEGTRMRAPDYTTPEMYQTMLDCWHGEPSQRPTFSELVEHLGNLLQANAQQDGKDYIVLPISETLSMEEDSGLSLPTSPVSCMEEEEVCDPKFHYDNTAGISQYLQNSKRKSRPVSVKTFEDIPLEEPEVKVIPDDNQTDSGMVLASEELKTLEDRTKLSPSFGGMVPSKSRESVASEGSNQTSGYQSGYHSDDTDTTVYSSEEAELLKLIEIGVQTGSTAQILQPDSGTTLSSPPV
Plk1, sequence (P53350 whole entry): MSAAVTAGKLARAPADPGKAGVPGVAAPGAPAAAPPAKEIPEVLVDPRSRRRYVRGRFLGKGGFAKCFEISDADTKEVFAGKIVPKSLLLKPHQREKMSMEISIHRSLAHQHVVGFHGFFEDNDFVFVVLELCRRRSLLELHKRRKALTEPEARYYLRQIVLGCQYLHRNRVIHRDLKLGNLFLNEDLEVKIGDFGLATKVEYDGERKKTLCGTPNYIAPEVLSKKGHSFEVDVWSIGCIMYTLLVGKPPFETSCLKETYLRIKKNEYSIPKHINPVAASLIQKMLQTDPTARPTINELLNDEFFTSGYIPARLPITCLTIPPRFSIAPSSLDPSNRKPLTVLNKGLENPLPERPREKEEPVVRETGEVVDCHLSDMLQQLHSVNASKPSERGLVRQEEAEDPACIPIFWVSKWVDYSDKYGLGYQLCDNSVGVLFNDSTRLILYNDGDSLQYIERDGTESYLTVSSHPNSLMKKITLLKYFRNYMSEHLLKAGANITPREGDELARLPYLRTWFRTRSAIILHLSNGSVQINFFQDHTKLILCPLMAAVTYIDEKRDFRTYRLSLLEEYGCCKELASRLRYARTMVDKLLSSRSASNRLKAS
T10 sequence (P28482 with tags, fused parts or gaps): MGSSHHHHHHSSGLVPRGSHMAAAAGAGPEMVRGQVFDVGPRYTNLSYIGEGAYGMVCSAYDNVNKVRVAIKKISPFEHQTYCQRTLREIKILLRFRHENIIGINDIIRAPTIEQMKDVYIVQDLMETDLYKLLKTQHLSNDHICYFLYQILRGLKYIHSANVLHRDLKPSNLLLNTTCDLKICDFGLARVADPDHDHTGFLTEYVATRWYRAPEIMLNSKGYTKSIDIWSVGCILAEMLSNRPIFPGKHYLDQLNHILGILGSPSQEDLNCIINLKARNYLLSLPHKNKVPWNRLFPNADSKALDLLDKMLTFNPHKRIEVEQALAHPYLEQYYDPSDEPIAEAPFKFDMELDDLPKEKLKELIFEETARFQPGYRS
IGF1R, sequence (P08069 31-1367): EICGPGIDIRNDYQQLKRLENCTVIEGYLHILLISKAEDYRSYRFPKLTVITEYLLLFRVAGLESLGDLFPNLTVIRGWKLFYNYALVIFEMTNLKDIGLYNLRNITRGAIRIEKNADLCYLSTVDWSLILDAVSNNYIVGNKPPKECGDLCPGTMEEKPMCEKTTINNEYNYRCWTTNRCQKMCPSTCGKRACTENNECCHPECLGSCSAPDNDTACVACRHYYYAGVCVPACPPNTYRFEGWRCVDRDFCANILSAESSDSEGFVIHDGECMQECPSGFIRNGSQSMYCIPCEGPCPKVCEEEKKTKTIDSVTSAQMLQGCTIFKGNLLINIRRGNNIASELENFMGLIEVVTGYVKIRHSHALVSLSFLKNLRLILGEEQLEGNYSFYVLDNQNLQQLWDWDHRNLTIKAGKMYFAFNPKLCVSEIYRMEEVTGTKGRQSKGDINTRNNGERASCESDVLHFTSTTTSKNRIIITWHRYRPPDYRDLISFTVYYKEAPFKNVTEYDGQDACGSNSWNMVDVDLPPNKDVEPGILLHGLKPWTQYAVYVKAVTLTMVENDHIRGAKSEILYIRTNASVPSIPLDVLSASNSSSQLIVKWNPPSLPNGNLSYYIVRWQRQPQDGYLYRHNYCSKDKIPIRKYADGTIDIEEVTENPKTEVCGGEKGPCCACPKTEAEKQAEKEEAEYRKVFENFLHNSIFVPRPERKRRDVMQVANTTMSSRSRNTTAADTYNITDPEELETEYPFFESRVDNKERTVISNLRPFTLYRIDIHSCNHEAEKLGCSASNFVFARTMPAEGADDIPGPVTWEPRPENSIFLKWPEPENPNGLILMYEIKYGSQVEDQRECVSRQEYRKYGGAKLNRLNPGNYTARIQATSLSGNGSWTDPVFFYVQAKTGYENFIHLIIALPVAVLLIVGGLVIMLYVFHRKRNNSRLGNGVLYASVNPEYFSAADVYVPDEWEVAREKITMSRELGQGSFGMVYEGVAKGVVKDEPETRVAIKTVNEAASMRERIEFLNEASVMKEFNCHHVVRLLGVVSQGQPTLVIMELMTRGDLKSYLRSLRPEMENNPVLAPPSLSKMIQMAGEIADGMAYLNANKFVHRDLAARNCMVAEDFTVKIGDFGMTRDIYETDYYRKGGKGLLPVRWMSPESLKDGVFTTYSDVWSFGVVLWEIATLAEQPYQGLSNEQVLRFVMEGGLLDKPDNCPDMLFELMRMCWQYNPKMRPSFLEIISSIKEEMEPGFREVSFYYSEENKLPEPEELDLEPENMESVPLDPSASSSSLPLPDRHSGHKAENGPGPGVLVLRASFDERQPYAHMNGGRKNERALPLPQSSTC
T8 sequence (P10721 with tags, fused parts or gaps): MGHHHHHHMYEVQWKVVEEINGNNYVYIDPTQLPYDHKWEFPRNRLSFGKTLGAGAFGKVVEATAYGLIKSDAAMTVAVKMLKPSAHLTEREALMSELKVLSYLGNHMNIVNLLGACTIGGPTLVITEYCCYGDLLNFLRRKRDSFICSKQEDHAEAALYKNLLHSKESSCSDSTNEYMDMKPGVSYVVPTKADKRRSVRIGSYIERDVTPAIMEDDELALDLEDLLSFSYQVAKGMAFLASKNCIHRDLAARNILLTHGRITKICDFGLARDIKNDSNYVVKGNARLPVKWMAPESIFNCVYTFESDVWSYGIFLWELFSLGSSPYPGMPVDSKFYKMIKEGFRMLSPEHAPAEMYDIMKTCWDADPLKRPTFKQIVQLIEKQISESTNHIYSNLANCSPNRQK
T5 sequence (Q02750 whole entry): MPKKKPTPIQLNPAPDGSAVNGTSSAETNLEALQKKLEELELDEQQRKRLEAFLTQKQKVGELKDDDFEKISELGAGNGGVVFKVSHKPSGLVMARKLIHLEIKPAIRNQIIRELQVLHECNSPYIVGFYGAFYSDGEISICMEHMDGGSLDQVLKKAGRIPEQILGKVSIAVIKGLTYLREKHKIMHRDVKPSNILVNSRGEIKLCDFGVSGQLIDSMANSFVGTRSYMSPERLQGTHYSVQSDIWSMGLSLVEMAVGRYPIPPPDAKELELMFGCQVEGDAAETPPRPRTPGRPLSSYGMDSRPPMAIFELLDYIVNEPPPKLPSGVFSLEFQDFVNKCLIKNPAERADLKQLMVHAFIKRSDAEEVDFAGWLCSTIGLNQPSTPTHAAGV
Akt3, sequence (Q9Y243 whole entry): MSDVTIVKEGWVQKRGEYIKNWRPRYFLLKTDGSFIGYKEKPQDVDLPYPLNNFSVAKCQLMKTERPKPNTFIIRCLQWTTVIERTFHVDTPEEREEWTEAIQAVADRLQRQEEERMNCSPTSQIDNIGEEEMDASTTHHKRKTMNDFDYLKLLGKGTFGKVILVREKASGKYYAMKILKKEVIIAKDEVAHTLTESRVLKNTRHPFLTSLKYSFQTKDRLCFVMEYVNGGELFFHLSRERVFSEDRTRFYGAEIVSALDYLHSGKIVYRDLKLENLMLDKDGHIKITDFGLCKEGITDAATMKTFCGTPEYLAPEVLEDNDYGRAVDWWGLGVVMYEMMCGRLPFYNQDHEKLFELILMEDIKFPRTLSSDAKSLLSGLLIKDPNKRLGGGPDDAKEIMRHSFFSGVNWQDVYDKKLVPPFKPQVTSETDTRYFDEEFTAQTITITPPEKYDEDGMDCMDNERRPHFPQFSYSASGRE

Cc1cc(C)cc(-c2ccnc3[nH]cc(C=O)c23)c1 [Compound P-0031]
not listed: Irak4 | Flt1 | Met | Akt3 | Gsk3β | MAP4K4
≤ 10 µM: all other assays above

Nc1cccc(-c2c[nH]c3ncccc23)c1 [Compound P-0091]
≤ 10 µM: Kdr | Stk6 | Irak4 | Flt1

CC(=O)Nc1cccc(-c2c[nH]c3ncccc23)c1 [Compound P-0076]
≤ 10 µM: Kdr | Stk6 | MAP2K1 | Irak4 | Met

Cc1cccc(-c2ccnc3[nH]cc(CNS(=O)(=O)C(F)(F)F)c23)c1 [Compound P-0154]
≤ 10 µM: Plk1 | IGF1R | Stk6 | Kit | Flt1 | Akt3 | Erk2 | Gsk3β

c1cnc2[nH]cc(-c3ccncc3)c2c1 [Compound P-0130]
≤ 10 µM: Kdr | MAP4K4 | Irak4
